{
  "source": "patent US7371811B2",
  "about": "“Schizophrenia associated genes, proteins and biallelic markers” (Serono Genetics Institute S.A., priority 1998, dated 2008)",
  "test_system": "Male C57BL6 adult mice",
  "assay": "Effect of sbg1 peptide on behavior of mice (locomotor and stereotypy movements)",
  "type": "in vivo",
  "conditions": "50 μg peptide intraperitoneally in 200 μl saline, n=4/peptide, FIG. 18",
  "method": "In one example, the present inventors have tested sbg1 peptides by injection into mice. An sbg1 peptide comprising amino acid positions 124 to 153 of SEQ ID No 34 was injected peritoneally into adult mice as described herein in Example 7. […] Because the onset of stereotypy was variable, data are presented as the average of stereotypy for observations over the entire time period.\nAnimals: Male C57BL6 adult mice (approximately 6 weeks old)\nPeptides: sbg1 peptide: • NH2-[…]-COOH (SEQ ID NO:232) • Control 1: NH2-[…]-COOH (SEQ ID NO:233) • Control 2: NH2-MHMKTILGPRLGLGE-COOH (SEQ ID NO:234)\nProtocol: • 1. Inject mice intraperitoneally with 50 μg peptide in 200 μl sterile physiological saline (n=4/peptide). • 2. Place mice in clean empty cages containing no litter, and only a small test tube rack. The cages are covered with a plastic sheet to enable taking photographs and video-tracking. • 3. Observe behavior for one minute from t=5 min up to t=45 min, as indicated. Any locomoter or stereotypy movements were recorded as positive over 1 min intervals. Locomoter movements include climbing, and rearing while stereotypy movements include grooming and scratching. At the end of the experiment, the number of movements were added up for each animal.\nResults: • 1. […]",
  "data": [
    {"substance": "NH2-QPLERMWTCNYNQQKDQSCNHKEITSTKAE-COOH (H-QPLERMWTCNYNQQKDQSCNHKEITSTKAE-OH; cysteine pairing not given here; listed as Homo sapiens) [sbg1 peptide]", "values": [
      {"measurement": "frequency of movements (locomotor activity) over the time course of the experiment", "setting": "average movements at 5, 10, 15 min compared with 30, 35, 40, 45 min", "value": "decrease in the frequency of their movements"},
      {"measurement": "stereotypy (grooming and scratching movements)", "setting": "observed t=5 to 45 min, effect most prominent during the last period", "value": "increased stereotypy"}
    ]}
  ]
}
